Assay results reported in patent US10010535B2, “Desferrithiocin analogs and uses thereof” (University of Florida Research Foundation, Incorporated, priority 2013, dated 2018).
Counter-ions that a name gives are not always drawn. Like-named read-outs stand apart in the source and are kept apart here.

Legend:
[1] = Job's plot stoichiometry of Fe(III) complexes; type: binding; details: [DFT analog]+[Fe(III)]=1.0 mM, Tris-HCl pH 7.4; theoretical 0.667 for 2:1
Protocol: Solutions containing DFT analog/Fe(III) at different ratios were prepared such that [DFT analog]+[Fe(III)]=1.0 mM in Tris-HCl buffer at pH 7.4. The theoretical mole fraction maximum for a 2:1 DFT analog:Fe complex is 0.667 (indicated by an arrow).
In each instance, the DFT analogs formed 2:1 complexes with Fe(III). […] A 100 mM Tris HCl buffer was used to maintain the pH at 7.4. Solutions containing different DFT analog/Fe(III) ratios were prepared by mixing appropriate volumes of 1.0 mM DFT analog solution and 1.0 mM Fe(III)-nitriloacetate (NTA) in Tris-HCl buffer. The 1.0 mM Fe(III)-NTA solution was prepared immediately prior to use by dilution of a 41.6 mM Fe(III)-NTA stock solution with the Tris HCl buffer, whereas the DFT analog stock solution was prepared by dissolving the DFT analog as its monosodium salt in Tris HCl buffer at pH 7.4. The Fe(III)-NTA stock solution was prepared by mixing equal volumes of […] of FeCl3 and 180 mM trisodium NTA. The iron content of the Fe(III)-NTA solution was verified by atomic absorption spectrophotometry (AAS).

[2] = Octanol-water partition, shake flask (log Papp); type: physicochemical; details: pH 7.4, Tris buffer
Protocol: The partition values between octanol and water (at pH 7.4, Tris buffer) were determined using a “shake flask” direct method of measuring log Papp values (Sangster et al., Octanol-Water Partition Coefficients: Fundamentals and Physical Chemistry; John Wiley and Sons: West Sussex, England, 1997; Vol. 2). The fraction of compound in the octanol is then expressed as log Papp. […] This is likely due to the presence of the aromatic nitrogen, a moderately good hydrogen bond accepter, on the DFT analogs.

urinary Kim-1 excretion [3] = details: for renal toxicity (Kim-1, BUN, SCr), summary: rat, in vivo; for survival of dosing period: po twice daily 237 μmol/kg/dose (474 μmol/kg/d), up to 7 d, rats with normal iron stores
Protocol: The compounds were administered to the rats po as their monosodium salts, prepared as described above, twice daily at a dose of 237 μmol/kg/dose (474 μmol/kg/d) for up to 7 d. The studies were performed on rats with normal iron stores. The rats were fasted overnight and were given the first dose of the compound first thing in the morning. The rats were fed ˜3 h post-dose and had access to food for ˜5 h before being fasted overnight.
The rats were housed in individual metabolic cages. […] A baseline (day 0) urine sample was collected and assessed for its Kim-1 content; each animal served as its own control. The urine was collected chilled as previously described (Bergeron et al., “Desferrithiocin Analog Iron Chelators: Iron Clearing Efficiency, Tissue Distribution, and Renal Toxicity.” Biometals, 2011, 24, 239-258).
The chilled urine was collected, vortexed, and warmed to room temperature; any sediment in the samples was allowed to settle. Kim-1 content was assessed using a Rat Kim-1 Rapid Test Kit according to the manufacturer's instructions. The result was read using a ReaScan Test Reader. […] Data are presented as the mean±the standard error of the mean; p-values were generated via a one-tailed Student's t-test in which the inequality of variances was assumed; and a p-value of <0.05 was considered significant.
Assessment of chelator-induced impaired renal function has traditionally relied on the detection of a rise in blood urea nitrogen (BUN) and/or serum creatinine (SCr). However, because of the functional reserve of the kidney, these parameters are often unreliable indicators of acute kidney injury; the ultimate answer requires histopathology. […] BioAssay Works has recently developed RenaStick, a direct lateral flow immunochromato-graphic assay, which allows for the rapid detection (less than 30 minutes) and quantitation of urinary Kim-1 (rat) or KIM-1 (human) excretion (Vaidya et al., “A Rapid Urine Test for Early Detection of Kidney Injury.” Kidney. Int. 2009, 76, 108-114). […] The studies were performed on rats with normal iron stores; each animal served as their own control.

[4] = 1H NMR hydrogen-deuterium exchange study; type: physicochemical; details: 25° C., pH 7.0, phosphate buffer (0.1 M)
Protocol: The ratio of the (unexchanged) to the (original) was measured by the diminution of δ 6.33 (d, H-3′, J=2.3) relative to the integration of δ 6.39 (d, H-5′, J=9.0) at time points to 104 min. […] (unexchanged) to the [I-1] (original) was measured by the diminution of δ 6.41 (d, H-4′, J=2.3) relative to the integration of δ 7.54 (d, H-6′, J=2.3) at time points to 16 h. Plots of the natural log of [compound]
Quinone formation could result in redox cycling and, at a cellular level, untoward side effects. […] The exchange rate order is understandable.

[5] = po once daily 384 μmol/kg/d (100 mg/kg/d), cited from earlier work
iron excretion [6] = details: cited from earlier work; for relative percentages of the iron excreted in the feces and urine: primates
iron excretion [7] = details: cited from earlier work; for relative percentages of the iron excreted in the bile and urine: rodents
[8] = oral; cited from earlier work
iron excretion [9] = experiment: Iron-clearing efficiency in iron-overloaded primates (fecal and urine samples); type: in vivo, Cebus apella monkeys
Protocol: At least 20 half-lives, 60 days (Wood et al., “The Metabolism of Iron-Dextran Given As a Total-Dose Infusion to Iron Deficient Jamaican Subjects.” Br. J. Hamaetol. 1968, 14, 119-129), elapsed before any of the animals were used in experiments evaluating iron-chelating agents.
Briefly, the collections began 4 days prior to the administration of the test compound and continued for an additional 5 days after the compound was given. Iron concentrations were determined by flame absorption spectroscopy as presented in other publications (Bergeron et al., “A Comparative Evaluation of Iron Clearance Models.” Ann. N.Y. Acad. Sci. 1990, 612, 378-393; Bergeron et al., “Synthesis and Biological Evaluation of Naphthyldesferrithiocin Iron Chelators.” J. Med. Chem. 1996, 39, 1575-1581).
In the text below, the term “iron-clearing efficiency” (ICE) is used as a measure of the amount of iron excretion induced by a chelator. The ICE, expressed as a percent, is calculated as (compound-induced iron excretion/theoretical iron excretion)×100. To illustrate, the theoretical iron excretion after administration of one millimole of desferrioxamine B mesylate (DFO) (FIG. 3), a hexadentate chelator that forms a 1:1 complex with Fe(III), is one milli-g-atom of iron. Two millimoles of desferrithiocin (DFT) (Table 1), a tridentate iron chelator that forms a 2:1 complex with Fe(III), are required for the theoretical excretion of one milli-g-atom of iron. The theoretical iron outputs of the chelators were generated on the basis of a 2:1 compound:iron complex. The efficiencies in the rats and monkeys were calculated as set forth elsewhere (Bergeron et al., “Effects of C-4 Stereochemistry and C-4′ Hydroxylation on the Iron Clearing Efficiency and Toxicity of Desferrithiocin Analogs.” J. Med. Chem. 1999, 42, 2432-2440; Bergeron et al., “HBED: A Potential Alternative to Deferoxamine for Iron-Chelating Therapy.” Blood 1998, 91, 1446-1452).

[10] = tested on: acetic acid-induced colitis; details: rat, in vivo; cited from earlier work
[11] = in vivo; cited from earlier work
urinary Kim-1 excretion [12] = details: cited from earlier work
[13] = day 8, after 237 μmol/kg twice daily × 7 d
[14] = po 150 μmol/kg, solubilized in 40% Cremophor RH-40/water
[15] = po 150 μmol/kg, 40% Cremophor RH-40/water
[16] = po once daily 28 d, once daily 384 μmol/kg/d × 10 d, twice daily 237 μmol/kg/dose × 7 d
[17] = po twice daily 237 μmol/kg/dose × 7 d

For `C[C@]1(C(=O)O)CSC(c2ncc(O)cc2O)=N1` [I-1, (S)-4,5-Dihydro-2-(3,5-dihydroxy-2-pyridinyl)-4-methyl-4-thiazolecarboxylic Acid], the “observed mole fraction maximum in Job's plot” value [1] was 0.669, the LogPapp [2] was −1.68 and the BUN (urinary Kim-1 excretion [3]; [13]) was 13 ± 2 mg/dL. The SCr (urinary Kim-1 excretion [3]; [13]) was 0.5 ± 0.1 mg/dL, the “renal toxicity (Kim-1, BUN, SCr), summary” value (from here on “renal toxicity”) (urinary Kim-1 excretion [3]) was “some nephrotoxicity” and the “Exchange Rate (s^−1), hydrogen-deuterium exchange” value [4] was 3.3e-06 s⁻¹.

In the case of `C[C@]1(C(=O)O)CSC(c2ncccc2O)=N1` [compound 1, desferrithiocin], the mortality ([5]; planned 10-d, rats with normal iron stores) is given as “All of the rats were dead by day 5”, the nephrotoxicity [5] is given as “severely nephrotoxic” and the LogPapp [2] is given as −1.77. For the same molecule, the “fold increase of urinary Kim-1 over baseline” value (urinary Kim-1 excretion [3]; after one day, 237 μmol/kg/dose twice daily po) was roughly 10 fold, the “survival of dosing period” value (urinary Kim-1 excretion [3]) was “None of the rats survived” and the SCr (urinary Kim-1 excretion [3]; two moribund rats sacrificed after four days of 237 μmol/kg/dose twice daily, normal 0.4-1) was 5.1 ± 0.3 mg/dL. For the same molecule, the BUN (urinary Kim-1 excretion [3]; two moribund rats sacrificed after four days of 237 μmol/kg/dose twice daily, normal 9-30) was 139 ± 8 mg/dL, the “Primate Iron-Clearing Efficiency (%)” value (iron excretion [6]; po 150 μmol/kg) was 16.1±8.5% and the “relative percentages of the iron excreted in the feces and urine” value (iron excretion [6]; po 150 μmol/kg) was 78/22. The “Rodent Iron-Clearing Efficiency (%)” value (iron excretion [7]; [14]) was 5.5±3.2%, the “relative percentages of the iron excreted in the bile and urine” value (“relative percentages … in the bile and urine” for short) (iron excretion [7]; [15]) was 93/7 and the nephrotoxicity [8] was “severe nephrotoxicity”. For the same molecule, the “Performance ratio (PR), mean ICEprimates/ICErodents” value (iron excretion [9]; primates po / rodents po) was 2.9.

In the case of `CC(=O)N(O)CCCCCNC(=O)CCC(=O)N(O)CCCCCNC(=O)CCC(=O)N(O)CCCCCN` [DFO, desferrioxamine B mesylate], the “effect on acetic acid-induced colitis” value [10] is given as “prevent acetic acid-induced colitis”.

For `C[C@]1(C(=O)O)CSC(c2ccccc2O)=N1` [compound 2, desazadesferrithiocin], the LogPapp [2] is listed as −0.34, the gastrointestinal toxicity [11] is listed as “serious gastrointestinal (GI) problems” and the nephrotoxicity [11] is listed as “not overtly nephrotoxic”. For the same molecule, the “Primate Iron-Clearing Efficiency (%)” value (iron excretion [6]; po 75 μmol/kg) was 21.5±12%, the “relative percentages of the iron excreted in the feces and urine” value (iron excretion [6]; po 75 μmol/kg) was 76/24 and the “Rodent Iron-Clearing Efficiency (%)” value (iron excretion [7]; [14]) was 2.7±0.5%. The “relative percentages … in the bile and urine” value (iron excretion [7]; [15]) was 100/0 and the “Performance ratio (PR), mean ICEprimates/ICErodents” value (iron excretion [9]; primates po / rodents po) was 8.0.

In the case of `COCCOCCOc1ccc(C2=N[C@@](C)(C(=O)O)CS2)c(O)c1` [compound 7], the LogPapp [2] is listed as −0.89, the “BUN and SCr” value (urinary Kim-1 excretion [12]; [16]) is listed as “well within the normal range” and the “survival of dosing period” value (urinary Kim-1 excretion [12]; [16]) is listed as “All of the rats survived the dosing period”. The “urinary Kim-1 content versus baseline (day 0)” value (urinary Kim-1 excretion [12]; [16]) was “stayed within error of this value”, the “renal toxicity” value (urinary Kim-1 excretion [12]; rat, in vivo) was “little to no impact on renal function” and the “Primate Iron-Clearing Efficiency (%)” value (iron excretion [6]; po 75 μmol/kg, capsule) was 26.3 ± 9.9%. The “Primate Iron-Clearing Efficiency (%)” value (iron excretion [6]; po 75 μmol/kg, sodium salt) was 28.7 ± 12.4%, the “relative percentages of the iron excreted in the feces and urine” value (iron excretion [6]; po 75 μmol/kg, capsule) was 93/7 and the “relative percentages of the iron excreted in the feces and urine” value (iron excretion [6]; po 75 μmol/kg, sodium salt) was 83/17. For the same molecule, the “Rodent Iron-Clearing Efficiency (%)” value (iron excretion [7]; po 300 μmol/kg, capsules, 48-h sample collection) was 26.7±4.7%, the “relative percentages … in the bile and urine” value (iron excretion [7]; po 300 μmol/kg, capsules, 48 h) was 97/3 and the nephrotoxicity [8] was “the renal toxicity virtually disappeared”. The “Performance ratio (PR), mean ICEprimates/ICErodents” value (iron excretion [9]; primates po, capsule) was 1.0 and the “Performance ratio (PR), mean ICEprimates/ICErodents” value (iron excretion [9]; primates po, sodium salt) was 1.1.

For `COCCOCCOc1cccc(C2=N[C@@](C)(C(=O)O)CS2)c1O` [compound 9], the LogPapp [2] is given as −0.96, the “Primate Iron-Clearing Efficiency (%)” value (iron excretion [6]; po 75 μmol/kg) is given as 22.5 ± 6.4% and the “relative percentages of the iron excreted in the feces and urine” value (iron excretion [6]; po 75 μmol/kg) is given as 86/14. For the same molecule, the “Rodent Iron-Clearing Efficiency (%)” value (iron excretion [7]; po 300 μmol/kg, monosodium salt, 48-h sample collection) was 15.1 ± 2.0% and the “relative percentages … in the bile and urine” value (iron excretion [7]; po 300 μmol/kg, monosodium salt, 48 h) was 99/1.

In the case of `COCCOCCOCCOc1cccc(C2=N[C@@](C)(C(=O)O)CS2)c1O` [compound 5, (S)-4,5-dihydro-2-[2-hydroxy-3-(3,6,9-trioxadecyloxy)]-4-methyl-4-thiazolecarboxylic acid], the nephrotoxicity [8] is listed as “the renal toxicity virtually disappeared”.

In the case of `COCCOCCOc1cnc(C2=N[C@@](C)(C(=O)O)CS2)c(O)c1` [I-2, (S)-4,5-Dihydro-2-[3-hydroxy-5-(3,6-dioxaheptyloxy)-2-pyridinyl]-4-methyl-4-thiazolecarboxylic Acid], the “observed mole fraction maximum in Job's plot” value [1] is reported as 0.676, the LogPapp [2] is reported as −1.59 and the “survival of dosing period” value (urinary Kim-1 excretion [3]) is reported as “All of the animals survived the compound dosing regimen”. The “BUN and SCr” value (urinary Kim-1 excretion [3]; [17]) was “well within the normal range”, the “urinary Kim-1 excretion versus baseline (day 0)” value (urinary Kim-1 excretion [3]; [17]) was “remained within error of that of the baseline (day 0) levels” and the “renal toxicity” value (urinary Kim-1 excretion [3]) was “little to no impact on renal function”. For the same molecule, the “Exchange Rate (s^−1), hydrogen-deuterium exchange” value [4] was “No change and none and No exchange”.
